This is an account of results in patent US5484793A, “Compounds derived from 6-azaindoles as ligands of the benzodiazepine receptor and medicaments containing them” (Centre National de la Recherche Scientifique (CNRS), priority 1991, dated 1996).

Like-named read-outs stand apart in the source and are kept apart here.

For series [1], the target named is benzodiazepine receptor. As to the kind of experiment: In vitro affinity for the benzodiazepine receptor on rat cortex membrane. The series is classed as binding. Here is the method:
A--In Vitro Tests on Cortex Membrane
The compounds of Examples 1 to 14 were tested on rat cortex membrane in order to determine their affinity for the benzodiazepine receptor.

In series [2] the test system is GABA receptor/benzodiazepine receptor/chloride channel complexes. Nature of the series: Electrophysiological test on Xenopus oocyte (injected with chicken optical lobe mRNA), pharmacological profile. Particulars: for pharmacological profile at the benzodiazepine receptor: Xenopus oocyte; for change of the potential difference (PD) of the oocyte: 10^-6 M, in 10^-5 M GABA bath. The class given is cell-based. An excerpt: B--Pharmacological Property of the Compound of Example 1 Determination of the Pharmacological Profile
This study consists of an electrophysiological test on Xenopus oocyte. The cells of chicken optical lobes fortuitously have a good response to GABA. The total RNAs are extracted therefrom and passed through an oligo(dT) affinity column, thus making it possible to separate the crude messenger RNAs therefrom, because the latter have a poly(A) end tail which will combine by complementarity with the oligo(dT) residues of the column. These messenger RNAs will then be injected into a Xenopus oocyte, which is only a one and only cell. These oocytes will then be incubated and, in two days, the messenger RNAs will be expressed and will thus, by virtue of the cell machinery of the oocyte, have produced GABA receptor/benzodiazepine receptor/chloride channel complexes. These large protein entities will then migrate in the cell and will reach the membrane, thus making it possible for this receptor and the transmembrane ion channel which is combined with it to take its place.
The oocyte is then placed in a 10^-5 M GABA bath in Ringer solution and two microelectrodes A and B are introduced therein, a third microelectrode being placed outside the cell to act as reference. Microelectrode A will be used to measure the potential difference (PD) between the interior and the exterior of the oocyte. A PD of 60 mV is imposed on the oocyte and the microelectrode B will be used to maintain this desired PD.
By perfusing an agonist such as diazepam, the latter and the GABA present in the medium will exert an allosteric effect at the level of the receptor with, as corollary, opening of the ion channel. There will therefore be entry of chloride into the oocyte and the PD will greatly increase. On the other hand, an inverse agonist such as β-CCM will cause a reduction in the binding of the GABA to the receptor with, as consequence, a reduction in the time of opening of the chloride channel and a lower PD.
An antagonist will occupy the binding site of the benzodiazepine receptor but will have no effect on the binding of the GABA. The opening of the chloride channel will therefore not be disturbed and the PD will not vary.

For series [3] the following is noted: in vivo (anxiolytic, anticonvulsant, and the like); cited from earlier work.
Series [4] deals with man. The settings on record: cited from earlier work.
The test system of series [5] is benzodiazepine receptor. The settings on record: cited from earlier work.
For series [6] the following is noted: in vivo; cited from earlier work.
The conditions of series [7]: in vivo; cited from earlier work. This is another data set of the same source.
The subject of series [8] is mice belonging to the ABP/Le strain. As to the kind of experiment: In vivo convulsant properties in ABP/Le mice. Also on record: species or system mouse. The settings on record: 20 mg/kg intraperitoneally, 14 mice, observation after 30 minutes. Here is the method: Compound 1 was tested first for its convulsant properties. The test was carried out on 14 mice (5 males and 9 females) aged two months belonging to the ABP/Le strain. This particular strain is very sensitive to convulsions induced by β-carbolines. Compound 1 was administered intraperitoneally at a dose of 20 mg/kg and observation took place after 30 minutes. […] The compound is therefore not convulsant.

For series [9], the system named is female Swiss mice. As to the kind of experiment: Passive avoidance test with learning in a single test (memory). The series is classed as in vivo, mouse. The settings on record: 20 mg/kg intraperitoneal. As for the experimental part:
Compound 1 was then tested on learning. This test, passive avoidance with learning in a single test, was carried out on 30 female Swiss mice aged two months. Compound 1 was administered to 15 mice at a dose of 20 mg/kg, the other 15 receiving an injection of physiological serum.
The equipment consists of a white box connected to a black box by a door. The white box is lit by a 100 W lamp placed at a distance of 25 cm and the black box, into which the mouse will spontaneously go because she feels safe in the darkness, contains an electrified metal floor. The boxes are coated with the smell of mice by an animal placed inside before each of the two series of 15 mice. […]
Ten minutes before learning, the marked mice receive an intraperitoneal injection of physiological serum or of Compound 1. […] The mice were then placed one by one in the illuminated white box and the arrival time in the black box is recorded. […]
After 24 hours, the avoidance test takes place: the mouse is placed in the white box and whether or not the mouse enters the black box in three minutes is recorded without any electrical shock being caused. If the mouse enters the black box in less than three minutes, the molecule tested has not improved the acquisition of the information "black box=electric shock" but if the time recorded is greater than three minutes, the molecule is assumed to have acted.

The target of series [10] is benzodiazepine receptor. The settings on record: in vitro; cited from earlier work.
In series [11] the test system is mice. Particulars: facilitating convulsions caused by other agents such as pentylenetetrazole; cited from earlier work.
Series [12] has as its target central receptors of benzodiazepines. The settings on record: in vitro, rat brain; read-out: IC50 at central benzodiazepine receptors; cited from earlier work.

What is called IC50 is the concentration that gives 50% inhibition. In the case of `COC(=O)c1cc2c(COCc3ccccc3[N+](=O)[O-])c[nH]c2cn1` [Example 6], 1200 nM corresponded to half-maximal inhibition in series [1] (IC50).

For the compound `CCOC(=O)c1ncc2[nH]c3cccc(OCc4ccccc4)c3c2c1COC` [ZK 91296], in series [2], the “pharmacological profile at the benzodiazepine receptor” value is given as “partial agonist”. Further, in [3], the “in vivo properties compared with diazepam” value was “properties analogous to those of diazepam in vivo (anxiolytic, anticonvulsant, and the like)”.

On to `CCOC(=O)c1ncn2c1CN(C)C(=O)c1cc(F)ccc1-2` [Flumazenil], for which, in [4], the “memory-enhancing properties in man” value is reported as “memory-enhancing properties were revealed”. Further, the “functional class at the benzodiazepine receptor” value (“functional class” below) in series [5] was “antagonists of the benzodiazepine receptor”.

Turning to `O=C(O)c1cccc(NC(=O)c2cc3cc[nH]c3cn2)c1` [Example 14], the IC50 in [1] is 5500 nM.

`COC(=O)c1cc2c(COCc3cccc([N+](=O)[O-])c3)c[nH]c2cn1` [Example 7]: the IC50 in [1] is 1300 nM.

With `COC(=O)c1cc2c(cn1)[nH]c1ccccc12` [β-CCM], the “effect on learning and memory” value in series [6] was “positive effect on learning and memory”. The “change of the potential difference (PD) of the oocyte” value (from here on “change of the potential difference”) in series [2] is listed as “significant reduction”. Further, the convulsant activity entry in [7] is recorded as “highly convulsant activity”. Also, the “functional class” value in series [5] is reported as “inverse agonists of the benzodiazepine receptor”.

Take `COC(=O)c1cc2c(COCc3ccccc3)c[nH]c2cn1` [Example 1, Methyl 3-Benzyloxymethyl-6-Azaindole-5-Carboxylate]: in series [2], the “change of the potential difference” value is given as “slight reduction of the PD” and the “pharmacological profile at the benzodiazepine receptor” value is “partial inverse agonist”. Moreover, the convulsions entry in series [8] is reported as “None of the mice showed the least convulsion”. The “memory-enhancing effect during the passive avoidance test” value in [9] is reported as “memory-enhancing effect of the compound during the passive avoidance test with learning in a single test has therefore been revealed”. In addition, the “animals treated with the molecule that learnt to avoid the electric shock” value in [9] (24 hours) came out at 75%. In addition, the IC50 in series [1] was determined as 750 nM.

As to `O=C(Nc1ccccc1)c1cc2cc[nH]c2cn1` [Example 13], in [1], inhibition was half-maximal at 7000 nM (IC50).

In [1], `COC(=O)c1cc2c(COCC=Cc3ccccc3)c[nH]c2cn1` [Example 11] registered an IC50 of 150 nM.

For the compound `CCOC(=O)c1cc2cc(C(=O)OCC)[nH]c2cn1` [2,5-dicarbethoxy-6-azaindole], the IC50 in series [10] was 84000 nM.

In turn, `COC(=O)c1cc2c(COCCc3ccccc3)c[nH]c2cn1` [Example 10] came in with an IC50 in series [1] of 8 nM.

On to `CCOC(=O)c1cc2c(cn1)[nH]c1ccccc12` [β-CCE, ethyl ester of β-carboline-3-carboxylic acid], for which the proconvulsant effect result in [11] is listed as “proconvulsant in mice”. The IC50 in [12] is 4 nM.

The compound `O=C(Nc1ccccc1C(=O)O)c1cc2cc[nH]c2cn1` [Example 12, 5-Phenylamido-6-Azaindole-2'-Carboxylic Acid] registered an IC50 in [1] of 300 nM.

With `CCOC(=O)c1ncc2[nH]c3cccc(OC(C)C)c3c2c1C` [ZK 93426], the “memory-enhancing properties in man” value in series [4] is listed as “memory-enhancing properties were revealed”. For the same compound, the “functional class” value in [5] was “antagonists of the benzodiazepine receptor”.

Turning to `O=C(O)c1ccc(NC(=O)c2cc3cc[nH]c3cn2)cc1` [Example 15], in [1], the IC50 is 2300 nM.

Turning to `COC(=O)c1cc2c(COCc3cccc(OC)c3)c[nH]c2cn1` [Example 9], in [1], it took 10000 nM to reach half-maximal inhibition (IC50).

In series [1], `COC(=O)c1cc2c(COCc3ccccc3F)c[nH]c2cn1` [Example 3] registered an IC50 of 65 nM.

`COC(=O)c1cc2c(COCc3cccc(F)c3)c[nH]c2cn1` [Example 4] yielded an IC50 in [1] of 100 nM.

On to `COCc1c[nH]c2cnc(C(=O)OC)cc12` [Example 2], for which the IC50 in [1] worked out at 1500 nM.

As for `COC(=O)c1cc2c(COCc3ccc(F)cc3)c[nH]c2cn1` [Example 5], it took 75 nM to reach half-maximal inhibition in series [1] (IC50).

On to `COC(=O)c1cc2c(COCc3ccc([N+](=O)[O-])cc3)c[nH]c2cn1` [Example 8], for which, in series [1], the IC50 came out at 300 nM.

Take `CCOC(=O)c1ncc2[nH]c3ccc(OCc4ccccc4)cc3c2c1COC` [ZK 93423]: in series [3], the “in vivo properties compared with diazepam” value was “properties analogous to those of diazepam in vivo (anxiolytic, anticonvulsant, and the like)”.

With `CN1C(=O)CN=C(c2ccccc2)c2cc(Cl)ccc21` [diazepam], the “change of the potential difference” value in series [2] is reported as “great increase”.
